In PubChem BioAssay AID1645864 (Buhrlage Lab, Dana-Farber Cancer Institute and Novartis …, 2021):
Active and inactive are the calls of the source.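 The calls were made as follows: active = maximal inhibition of USP17 at or above 30% in the confirmation dose-response, a value not among the printed readouts; inactive = the rest.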

Biological target: Ubiquitin carboxyl-terminal hydrolase 17-like protein 5 (Homo sapiens) (UniProt A8MUK1)
Assay: ubiquitin-specific protease 17 inhibitors, concentration series, biochemical, verification of primary actives (AID 1645864)
Details: purified USP17, ubiquitin-rhodamine cleavage fluorescence, 3 h

Ubiquitin carboxyl-terminal hydrolase 17-like protein 5 (Homo sapiens), sequence (A8MUK1 whole entry, looked up): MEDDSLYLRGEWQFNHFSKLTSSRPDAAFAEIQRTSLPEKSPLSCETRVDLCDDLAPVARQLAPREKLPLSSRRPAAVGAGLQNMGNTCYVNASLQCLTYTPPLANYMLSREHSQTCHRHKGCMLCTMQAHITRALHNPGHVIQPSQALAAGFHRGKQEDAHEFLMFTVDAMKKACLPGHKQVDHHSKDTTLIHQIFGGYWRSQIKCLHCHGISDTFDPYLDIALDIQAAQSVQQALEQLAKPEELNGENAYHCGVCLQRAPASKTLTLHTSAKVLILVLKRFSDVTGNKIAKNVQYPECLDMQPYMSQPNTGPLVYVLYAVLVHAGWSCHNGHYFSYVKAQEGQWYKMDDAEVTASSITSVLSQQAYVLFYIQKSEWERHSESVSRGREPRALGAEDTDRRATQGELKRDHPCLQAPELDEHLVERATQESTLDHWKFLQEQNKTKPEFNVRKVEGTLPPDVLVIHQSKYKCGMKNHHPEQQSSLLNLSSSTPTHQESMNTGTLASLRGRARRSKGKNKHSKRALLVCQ

Row | SMILES | IC50
1 | CSc1nc(Cc2ccc(Cl)cc2)nc2ccccc12 | > 50 µM (inactive)
2 | O=C(CSc1ccc2nnc(-c3ccccc3)n2n1)N1CCCc2ccccc21 | 13.1 µM
3 | Cc1ccc2c(c1)N=C(c1ccc([N+](=O)[O-])cc1)CO2 | > 50 µM (inactive)
4 | Cc1cccc(C(=O)N2CCc3cc(-c4nc(NC(=O)CNc5ccccc5)sc4C)ccc32)c1 | > 50 µM (inactive)
5 | COc1cccc(NC(=O)C2Cc3ccccc3N2C(=O)c2ccccc2)c1 (stereo not given) | 27.7 µM
6 | CCCCn1c(=O)c(CCC(=O)OCC(=O)Nc2ccc3c(c2)OCCO3)nc2ccccc21 | > 5 µM (inactive)
7 | O=C(Nc1ccc2c(c1)OCO2)c1cc(-c2cccnc2)n(-c2ccccc2)n1 | 47.6 µM
8 | CCOc1ccccc1NC(=O)Cn1ccn2nc(-c3ccc(OC)cc3)cc2c1=O | 6.49 µM
9 | Cc1ccc2cc(CCNC(=O)c3cccc(Br)c3)c(=O)[nH]c2c1 | 38.9 µM
10 | COc1ccc(NC(=O)C2C3C=CC4(O3)C2C(=O)N(CCc2ccccc2)C4C(=O)NC2CCCCC2)cc1 (stereo not given) | 26.2 µM
11 | Cc1sc(NC(=O)/C=C/c2ccco2)nc1-c1ccccc1 | > 50 µM (inactive)
12 | CCCCc1nc2sc3c(SCC(=O)Nc4cccc(C)c4)ncnc3c2c2c1CCC2 | 14 µM
13 | Cn1c(=O)sc2cc(NC(=O)c3ccc(Br)cc3)ccc21 | 1.8 µM
14 | CCOc1ccc(NS(=O)(=O)c2ccc(NC(=O)Nc3ccccc3)cc2)cc1 | 17.9 µM
15 | CCn1cnc2c1c(=O)n(CC(=O)NCc1ccccc1Cl)c(=O)n2Cc1ccccc1 | > 50 µM (inactive)
16 | CCOC(=O)N1CCN(S(=O)(=O)c2ccc(C(=O)Nc3ccc(Br)cc3)cc2)CC1 | 1.78 µM
17 | N#Cc1c(-c2cccs2)cc(-c2cccs2)[nH]c1=O | > 50 µM (inactive)
18 | O=C(Nc1cccc2ccccc12)N1CCC(c2nc3c(nnn3Cc3ccc(F)cc3)c(=O)[nH]2)CC1 | 28.6 µM
19 | Cc1cc(C)c2cc(CN(CCc3ccccc3)C(=O)Nc3ccccc3)c(=O)[nH]c2c1 | 43.5 µM
20 | CCCC1Cc2c(sc3nc(SCC)nc(N)c23)CO1 (stereo not given) | 7.76 µM
21 | COc1cccc2cc(C(=O)Nc3ccc4c(c3)OCCO4)oc12 | > 50 µM (inactive)
22 | O=C(O)c1ccc(C2Cc3c([nH]c(=O)[nH]c3=O)O2)cc1 (stereo not given) | 44.9 µM
23 | CCCCCCCc1cc(O)cc(OC(=O)c2c(CCCCCCC)cc(O)cc2O[C@H]2O[C@H](C(O)CO)[C@@H](O)[C@@H]2O)c1 (stereo not given in full) | 34.1 µM
24 | Cc1ccc2cc(CNc3ccccc3)c(=O)n(CC(=O)Nc3ccccc3C)c2c1 | 9.1 µM
25 | O=C(NCc1ccccc1Cl)c1ccc2cn[nH]c2c1 | > 50 µM (inactive)

Row | SMILES | IC50
26 | O=C(NCc1ccco1)c1ccc2c(c1)N(Cc1cccc(F)c1)C(=O)c1ccccc1S2 | > 50 µM (inactive)
27 | Cc1nn(-c2ccccc2)c(C)c1C(=O)OCC(=O)Nc1cccc(C#N)c1 | > 50 µM (inactive)
28 | O=C(COc1ccc(F)cc1)Nc1cc(F)c2nc(N3CCOCC3)ccc2c1 | 4.34 µM
29 | Cc1nn(Cc2ccccc2)c(C)c1C(=O)NC1CCCc2ccccc21 (stereo not given) | > 50 µM (inactive)
30 | Cc1nc2ccc(NC(=O)COc3ccccc3[N+](=O)[O-])cc2s1 | 3.26 µM
31 | CCOc1cc(C2C3=C(CC(C)(C)CC3=O)Nc3onc(C)c32)ccc1O (stereo not given) | 39.7 µM
32 | Cc1nc(CN2CCn3c(Cn4cccn4)cnc3C2C)cs1 (stereo not given) | > 50 µM (inactive)
33 | Cc1ccccc1Cn1ccc2ccn(Cc3cccnc3)c2c1=O | > 50 µM (inactive)
34 | CC(C)N1CC2CN(Cc3ccc(Cl)cc3)CCN2Cc2ccccc21 (stereo not given) | > 50 µM (inactive)
35 | COc1c(O)c(O)c2c(=O)cc(-c3ccc(O)cc3)oc2c1OC | 38.5 µM
36 | CC(C)=CCCC1(C)OC2=C(C(=O)c3cc(O)cc(O)c3C2=O)[C@H]2C=C(C)CC[C@H]21 (stereo not given in full) | 9.83 µM
37 | Cc1ccc(C(=O)Nc2nc3n(n2)C(c2ccccc2)CC(=O)N3)cc1 (stereo not given) | 27.9 µM
38 | C/C=C\C1=CC(=O)[C@]23C[C@H]2[C@]2(C)CO[C@@]1(O)[C@@]3(O)O2 | > 50 µM (inactive)
39 | Cc1ccc(S(=O)(=O)Nc2ccccc2SCCS(=O)(=O)c2ccc(Cl)cc2)cc1 | > 50 µM (inactive)
40 | Oc1ccc(-c2nc3ccc(Cl)cn3c2NC2CCCCC2)cc1 | 15.2 µM
41 | COc1ccccc1-c1nc2c3c(C)c(C)n(-c4ccc(Br)cn4)c3ncn2n1 | 0.567 µM
42 | Cc1ccc(Nc2nc(Nc3cccc(F)c3)nc3nccnc23)c(C)c1 | > 50 µM (inactive)
43 | FC(F)(F)c1ccccc1CCN1CCc2nc3ncc(Cl)cc3cc2C1 | > 50 µM (inactive)
44 | O=C(Nc1cc(F)c2nc(N3CCOCC3)ccc2c1)c1ccc(Br)o1 | 42.2 µM
45 | N#Cc1ccc(NC(=O)COC(=O)c2ccc3ccccc3n2)cc1 | > 50 µM (inactive)
46 | CCOc1ccc2c(c1)c(=O)c(C(=O)c1ccccc1)cn2CC(=O)Nc1ccccc1 | 5.29 µM
47 | O=C(CC1C(=O)N(Cc2ccccc2)c2nc3ccccc3n21)NCCc1ccccc1 (stereo not given) | 18.7 µM
48 | COc1ccc(S(=O)(=O)N2CCN3Cc4ccccc4N(C)CC3C2)cc1 (stereo not given) | > 50 µM (inactive)
49 | O=C(NCc1ccccc1)c1ccc2c(=O)n(-c3ccccc3)c(=O)[nH]c2c1 | 21.8 µM
50 | O=C(Nc1ncc2c(n1)-c1ccccc1CC2)C1CC1 | 20.9 µM
